# According to patent US12383556B2, “Methods of treating Sjögren's syndrome using a Bruton's tyrosine kinase inhibitor” (NOVARTIS AG, priority 2019, dated 2025):
# Assays:
# [1] = tested on: mast cell FcγRIII-mediated inflammation; assay: Reverse passive Arthus (RPA) model, skin swelling; type: in vivo
# Method: As the levels of BTK-expressing cells in skin were too low to allow occupancy measurement, the duration of the PD effect in skin after single dose was assessed in the reverse passive Arthus (RPA) model of mast cell FcγRIII-mediated inflammation. In this model, the inhibition of skin swelling was maximal when compound (I) was dosed 2 hours prior to eliciting the Arthus reaction. The effect diminished gradually and reached baseline when the Arthus reaction was triggered 45 hours or later after compound (I) dosing.
# [2] = Blood exposure of compound (I) after oral dose in rats; type: in vivo; conditions: female, rat, 1 mg/kg dose
# Method: From the experimental data it was apparent that a short transient systemic exposure of compound (I) is sufficient to achieve full BTK occupancy in several tissues at low oral doses of 1-3 mg/kg. […] This very low and transient systemic exposure is consistent with the PK/PD model typical of irreversible inhibitors.
# [3] = molecular target: T1, BTK (Homo sapiens, UniProt Q06187); assay: BTK occupancy in human whole blood (free and total BTK ELISA, MSD); type: in vivo
# T1 construct: from tissue; host or cells: human whole blood (peripheral blood of dosed volunteers)
# Method: Pharmacodynamics (PD) was characterized by assessing target occupancy and distal pathway inhibition. Measurements of BTK occupancy in human whole blood (derived as ratio of free and total BTK), served as direct marker of therapeutic target engagement.
# Compound of formula (I) is an irreversible inhibitor of BTK, the extent and duration of BTK occupancy were determined.
# The relationship between dose and pharmacodynamics was characterized by measurements of BTK occupancy in human blood (derived as ratio of free and total BTK), a direct marker of therapeutic target engagement. BTK occupancy was determined for single ascending doses ranging 0.5 to 400 mg, for q.d. multiple ascending doses ranging from of 10 mg and 400 mg, and for b.i.d. multiple ascending doses of 100 mg and 200 mg.
# [4] = tested on: FcεR1-mediated basophil activation; assay: Ex vivo basophil activation (CD63, CD203c), whole blood stimulated with anti-IgE, flow cytometry; type: in vivo, human
# Method: In addition, ex vivo inhibition of basophil activation (monitored by surface expression of CD63 and CD203c) was used as distal mechanistic biomarker to test downstream PD effects of compound (I). To determine the PD effect of compound (I) on basophil activation, whole blood was stimulated ex vivo with anti-IgE. Degranulation was evaluated by percentage of CD63+ and CD203+ basophils by flow cytometry.
# [5] = tested on: defined allergen response (wheal size); assay: Skin prick test (SPT) in healthy atopic subjects; type: in vivo, human; conditions: for dose at which reduction of wheal size in SPT started to plateau: multiple ascending dose, q.d.
# Method: The ability of compound (I) to inhibit a defined allergen response has been evaluated by means of the skin prick test (SPT) in healthy atopic subjects in the MAD study part of the first in human study. SPT was performed prior to dosing (at screening, baseline and pre-dose on Day 1) and at different time points after the first dose (Day 1) and after 11 days of once daily dosing (Day 12).
# [6] = after single dose, peripheral blood
# T1 sequence (Q06187 whole entry): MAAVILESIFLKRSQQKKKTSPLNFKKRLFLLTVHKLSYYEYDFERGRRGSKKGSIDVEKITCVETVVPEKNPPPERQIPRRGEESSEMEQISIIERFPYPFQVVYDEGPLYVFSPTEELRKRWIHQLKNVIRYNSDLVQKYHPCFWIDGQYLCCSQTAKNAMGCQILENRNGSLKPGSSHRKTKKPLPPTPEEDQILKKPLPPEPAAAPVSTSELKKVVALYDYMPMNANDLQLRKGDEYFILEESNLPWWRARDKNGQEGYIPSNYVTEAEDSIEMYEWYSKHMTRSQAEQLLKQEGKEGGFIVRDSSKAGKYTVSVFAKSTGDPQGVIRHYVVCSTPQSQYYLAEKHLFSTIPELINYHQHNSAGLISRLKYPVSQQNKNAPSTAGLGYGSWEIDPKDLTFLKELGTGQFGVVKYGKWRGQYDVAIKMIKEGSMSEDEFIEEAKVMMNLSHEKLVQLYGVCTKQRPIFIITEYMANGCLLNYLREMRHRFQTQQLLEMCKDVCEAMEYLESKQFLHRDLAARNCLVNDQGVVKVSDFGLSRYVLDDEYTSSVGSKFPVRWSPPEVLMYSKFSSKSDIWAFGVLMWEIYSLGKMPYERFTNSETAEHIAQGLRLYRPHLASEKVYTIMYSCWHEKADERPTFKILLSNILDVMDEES
smiles,measurement,setting,value
"C=CC(=O)N(C)CCOc1c(N)ncnc1-c1cc(F)cc(NC(=O)c2ccc(C3CC3)cc2F)c1C [Compound of Formula (I), N-(3-(6-Amino-5-(2-(N-methylacrylamido)ethoxy)pyrimidin-4-yl)-5-fluoro-2-methylphenyl)-4-cyclopropyl-2-fluorobenzamide]",time after dosing of Arthus trigger at which effect reached baseline,[1]; single dose,≥ 45 h
same,inhibition of skin swelling,[1]; single dose 2 hours prior to eliciting the Arthus reaction,maximal
same,concentration at 0.5 h,[2]; 0.5 hours post dose,0.0491 µM
same,concentration at 5 h,[2]; 5 hours post dose,0.0056 µM
same,BTK occupancy in blood,[3]; 10 mg q.d.,nearly complete
same,through BTK occupancy in blood,"[3]; 10 mg q.d., pre-dose at day 12",> 96%
same,median BTK turnover T1/2,[3]; [6],about 48 hours
same,time to refresh BTK protein pool to pre-dose levels,[3]; [6],about 10 days
same,duration of BTK occupancy in blood,[3]; in vivo,> 24 h
same,time of peak target occupancy post dose,[3]; peripheral blood,0.5 h
same,BTK occupancy at 24 h,[3]; single doses of 15 mg and above,above 80%
same,peak target (BTK) occupancy,"[3]; single doses of 15 mg and above, nearly all subjects",~100%
same,duration of sustained BTK occupancy,[3]; single doses of 30 mg and higher,> 24 h
same,BTK occupancy (near-complete),"[3]; single doses of 30 mg and higher, all subjects",> 90%
same,reduction of CD63 up-regulation,"[4]; 10 mg q.d., as restated",> 80%
same,inhibition of CD63 upregulation,"[4]; 10 mg q.d., day 12 (steady state), 8 h after administration",> 90%
same,maximum trough inhibition of CD203c activation,"[4]; Day 12, multiple doses",only achieved with b.i.d. administration of 100 mg and 200 mg
same,trough level inhibition of CD63,"[4]; doses ≥50 mg q.d., day 12",> 90%
same,inhibition of ex vivo basophil activation measured by CD63,"[4]; single dose 60 mg, 24 h post dose",> 89%
same,maximum inhibition of CD203c,"[4]; single dose 200 mg, 24 h post dose",~50%
same,inhibition of ex vivo basophil activation measured by CD63,"[4]; single doses higher than 60 mg, 24 h post dose",~100%
same,inhibition of wheal size in SPT,[5]; 10 mg q.d.,minimal inhibition
same,dose at which reduction of wheal size in SPT started to plateau,[5]; listed as compound (I),around 100 mg
same,dose at which reduction of wheal size in SPT started to plateau,[5]; listed as compound of Formula (I),100 mg
